The conditions of series [1]: from (S,Z)-2-((((9H-fluoren-9-yl)methoxy)carbonyl)(methyl)amino)-9-((S)-2-((S)-2-(12-azaneyl)-N,4-dimethylpentanamido)-3-(5-chloro-2-cyclopropoxypyridin-3-yl)-N-methylpropanamido)non-4-enoic acid TFA salt; amide bond; 16-membered ring; PyBOP/HOAt/DIEA; DCM; 2.6 mM; 25.0 °C.
The subject of a further series is WI-38 cells. Description: MTT proliferation assay, WI-38.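 Note: Eight- or ten-point dilution series, with exposure length chosen to span about three to four cell doublings.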 The class given is cell-based. The note with it: 3 days compound exposure, 1:3 serial dilution starting at 10 μM. (In general: Formazan colour is commonly taken as a measure of viable cells.)
The next series concerns OVCAR3 cells. Description: MTT proliferation assay, OVCAR3.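 Note: compound given as an 8- or 10-point series, one day after plating, with exposure covering roughly 3-4 cell doublings.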 The note with it: 5 days compound exposure, 1:3 serial dilution starting at 10 μM. The class given is cell-based.
For the next series, the target named is T1, CyclinB1/CDK1 (Homo sapiens, UniProt P14635).
T1 construct: purchased Eurofins, discovery 14-450
The series can be described thus: Fluorescence Polarization (FP) competitive binding assay, Cyclin B1/Cdk1.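 Note: fluorescence polarization read after equilibration at room temperature, with IC50 taken from serially diluted dose-response curves.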 The note with it: 10 nM Cyclin B1/Cdk1, 2 nM FAM probe; average of 2-3 independent experiments; read-out: Cyclin B FP IC50. On the technique in general: In fluorescence polarisation assays a small probe gives low polarisation when free and higher when bound to something large.

Another series deals with T2, CyclinA2/CDK2 (Homo sapiens, UniProt P20248).
T2 construct: purchased CRELUX Protein Services
Description: Fluorescence Polarization (FP) competitive binding assay, Cyclin A2/Cdk2.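 Note: plates equilibrated two hours at room temperature before polarization reading, IC50 fitted from eight-concentration compound titration curves.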 The note with it: 8 nM Cyclin A2/Cdk2, 2 nM FAM probe; average of 2-3 independent experiments; read-out: Cyclin A FP IC50.

The target of the next series is T3, CyclinE1/CDK2 (Homo sapiens, UniProt P24864).
T3 construct: purchased Eurofins, discovery 14-475
Description: Fluorescence Polarization (FP) competitive binding assay, Cyclin E1/Cdk2.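 Note: readings taken after two-hour equilibration at room temperature in HEPES buffer with NaCl, DTT, NP-40 and BSA, IC50 fitted from eight-concentration serial dilution series.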 The note with it: 10 nM Cyclin E1/Cdk2, 2 nM FAM probe; average of 2-3 independent experiments; read-out: Cyclin E FP IC50.

Another series concerns NCI-H1048 cells. Description: MTT proliferation assay, NCI-H1048.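 Note: Dose-response in 96-well plates over 8 or 10 concentration points, with exposure spanning 3-4 cell doublings.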 The class given is cell-based. The note with it: 5 days compound exposure, 1:3 serial dilution starting at 10 μM.

pIC50: −log10 of the molar value. Where two headings read alike, the source gives them in different places. *1 amine or outer side, *2 acyl side, *3 side chain or, on linkers, in order; H or OH if unused. Where a SMILES comes first, the peptide text is derived from it. Bridges are numbered along the chain shown (N, C = ends). [ ]: non-standard residue; d: D form. The star is where a group is joined. NMePhe(2-(4-MorPh),5-Cl) = CN[C@@H](Cc1cc(Cl)ccc1-c1ccc(N2CCOCC2)cc1)C(=O)O; X63 = CC(C)N1CCN(c2ccc(-c3ccc(Cl)cc3C[C@@H](C(=O)[*:2])N(C)[*:1])cc2F)CC1; X62 = CN1CCC[C@H](c2ccc(-c3ccc(Cl)cc3C[C@@H](C(=O)[*:2])N(C)[*:1])cc2)C1; X95 = CN1CCCC[C@H]1c1ccc(-c2ccc(Cl)cc2C[C@@H](C(=O)[*:2])N(C)[*:1])cc1; NMehhhLys(Me) = CN([C@@H](CCCCCCCN(C)[*:3])C(=O)[*:2])[*:1]; cBuCO(3,3-F2-1-CF3) = O=C(C1(C(F)(F)F)CC(F)(F)C1)*; Pro(trans-4-F) = O=C(O)[C@@H]1C[C@@H](F)CN1; Nva(5-OH) = N[C@@H](CCCO)C(=O)O; Gly(cPr) = N[C@H](C(=O)O)C1CC1

We go through 11 compounds from patent US20240408169A1 (priority 2023, published 2024).

By GI50 is commonly meant the concentration giving 50% growth inhibition. The pIC50 is the IC50 on a negative log10 scale, so that one unit is a factor of ten.

`CC(C)C[C@@H]1NC(=O)[C@@H](N(C)C(=O)OCC2c3ccccc3-c3ccccc32)C/C=C\CCCCN(C)C(=O)[C@H](Cc2cc(Cl)cnc2OC2CC2)N(C)C1=O` yielded a ring closure, yield of all isomers (from CC(C)C[C@H](N)C(=O)N(C)[C@@H](Cc1cc(Cl)cnc1OC1CC1)C(=O)N(C)CCCC/C=C\C[C@@H](C(=O)O)N(C)C(=O)OCC1c2ccccc2-c2ccccc21, amide bond, PyBOP/HOAt/DIPEA, DCM, 2.57 mM, 25.0 °C) of 30%.
As to `CC(C)C[C@@H]1NC(=O)[C@@H](N(C)C(=O)[C@@H](NC(=O)OC(C)(C)C)C2CC2)CC=CCCCCN(C)C(=O)[C@H](Cc2cc(F)ccc2Br)N(C)C1=O`, the ring closure, yield of all isomers (from C=CCCCCN(C)C(=O)[C@H](Cc1cc(F)ccc1Br)N(C)C(=O)[C@H](CC(C)C)NC(=O)[C@H](CC=C)N(C)C(=O)[C@@H](NC(=O)OC(C)(C)C)C1CC1, rcm bond, Hoveyda-Grubbs II, DCE, 6.3 mM, 70.0 °C) was 67%.
As to `CCN(C(=O)OC1c2ccccc2-c2ccccc21)[C@H]1C/C=C\CCCCN(C)C(=O)[C@H](Cc2cc(Cl)cnc2OC2CC2)N(C)C(=O)[C@H](CC(C)C)NC1=O`, the ring closure, isolated yield in series [1] was 30%.
As for `CC(C)C[C@@H]1NC(=O)[C@@H](N(C)C(=O)[C@@H](NC(=O)[C@@H]2C[C@@H](F)CN2C(=O)C2(C(F)(F)F)CC(F)(F)C2)C2CC2)CCCCCCCN(C)C(=O)[C@H](Cc2cc(Cl)ccc2-c2ccc([C@H]3CCCN(C)C3)cc2)N(C)C1=O` [Example 412] ({cBuCO(3,3-F2-1-CF3)}-[Pro(trans-4-F)][Gly(cPr)][NMehhhLys(Me)]L[X62]; lactam 3-C), the results for the GI50 in the series with WI-38 cells, in the series with OVCAR3 cells and in the series on NCI-H1048 cells were 1060 nM, 10 nM and 10 nM, respectively. The negative-log IC50 (pIC50) on CyclinB1/CDK1 was 7.70; on CyclinA2/CDK2, 7.70; at CyclinE1/CDK2, 5.86.
Regarding `CC(C)C[C@@H]1NC(=O)[C@@H](N(C)C(=O)[C@@H](NC(=O)[C@@H]2C[C@@H](F)CN2C(=O)C2(C(F)(F)F)CC(F)(F)C2)C2CC2)CCCCCCCN(C)C(=O)[C@H](Cc2cc(Cl)ccc2-c2ccc(N3CCN(C(C)C)CC3)c(F)c2)N(C)C1=O` [Example 413] ({cBuCO(3,3-F2-1-CF3)}-[Pro(trans-4-F)][Gly(cPr)][NMehhhLys(Me)]L[X63]; lactam 3-C), the GI50 in the series on WI-38 cells came out at 1600 nM; in the series on OVCAR3 cells, 10 nM; with NCI-H1048 cells, 10 nM. For the same compound, the pIC50 is 7.70 at CyclinB1/CDK1, 7.70 at CyclinA2/CDK2 and 5.88 at CyclinE1/CDK2.
Turning to `COC(=O)CC[C@H](NC(=O)[C@@H]1C[C@@H](F)CN1C(=O)C1(C(F)(F)F)CC(F)(F)C1)C(=O)N(C)[C@H]1CCCCCCCN(C)C(=O)[C@H](Cc2cc(Cl)ccc2-c2ccc(N3CCOCC3)cc2)N(C)C(=O)[C@H](CC(C)C)NC1=O` [Example 415] ({cBuCO(3,3-F2-1-CF3)}-[Pro(trans-4-F)]E(OMe)[NMehhhLys(Me)]L[NMePhe(2-(4-MorPh),5-Cl)]; lactam 3-C), the GI50 in the series with WI-38 cells turned out to be 14100 nM; in the series with OVCAR3 cells it was 10 nM; with NCI-H1048 cells it was 10 nM. Moreover, the pIC50 on CyclinB1/CDK1 is 7.70; at CyclinA2/CDK2, 7.70; at CyclinE1/CDK2, 6.52.
For the compound `CC(C)C[C@@H]1NC(=O)[C@@H](N(C)C(=O)[C@@H](NC(=O)[C@@H]2C[C@@H](F)CN2C(=O)C2(C(F)(F)F)CC(F)(F)C2)C2CC2)CCCCCCCN(C)C(=O)[C@H](Cc2cc(Cl)ccc2-c2ccc([C@@H]3CCCCN3C)cc2)N(C)C1=O` [Example 417] ({cBuCO(3,3-F2-1-CF3)}-[Pro(trans-4-F)][Gly(cPr)][NMehhhLys(Me)]L[X95]; lactam 3-C), the GI50 in the series with WI-38 cells stood at 1160 nM; in the series on OVCAR3 cells it was 10 nM; in the series with NCI-H1048 cells, 10 nM. Besides, the pIC50 is 7.70 at CyclinB1/CDK1, 7.52 at CyclinA2/CDK2 and 5.58 on CyclinE1/CDK2.
For the compound `CC(C)C[C@@H]1NC(=O)[C@@H](N(C)C(=O)[C@H](CCC(=O)N(C)C)NC(=O)[C@@H]2C[C@@H](F)CN2C(=O)C2(C(F)(F)F)CC(F)(F)C2)CCCCCCCN(C)C(=O)[C@H](Cc2cc(Cl)ccc2-c2ccc(N3CCOCC3)cc2)N(C)C1=O` [Example 419, (S)—N1-((3S,6S,9S)-3-((4-chloro-4′-morpholino-[1,1′-biphenyl]-2-yl)methyl)-6-isobutyl-1,4-dimethyl-2,5,8-trioxo-1,4,7-triazacyclohexadecan-9-yl)-2-((2S,4R)-1-(3,3-difluoro-1-(trifluoromethyl)cyclobutane-1-carbonyl)-4-fluoropyrrolidine-2-carboxamido)-N1,N5,N5-trimethylpentanediamide] ({cBuCO(3,3-F2-1-CF3)}-[Pro(trans-4-F)]E(NMe2)[NMehhhLys(Me)]L[NMePhe(2-(4-MorPh),5-Cl)]; lactam 3-C), the GI50 with WI-38 cells was determined as 1990 nM; in the series on OVCAR3 cells, 20 nM; with NCI-H1048 cells, 20 nM. For the same compound, the pIC50 at CyclinB1/CDK1 was 7.70; at CyclinA2/CDK2, 7.70; at CyclinE1/CDK2, 6.27.
On to `CC(C)C[C@@H]1NC(=O)[C@@H](N(C)C(=O)[C@H](CCC(=O)N2CCN(C)CC2)NC(=O)[C@@H]2C[C@@H](F)CN2C(=O)C2(C(F)(F)F)CC(F)(F)C2)CCCCCCCN(C)C(=O)[C@H](Cc2cc(Cl)ccc2-c2ccc(N3CCOCC3)cc2)N(C)C1=O` [Example 420], for which the GI50 in the series on WI-38 cells is 3510 nM; in the series on OVCAR3 cells, 20 nM; in the series on NCI-H1048 cells it was 10 nM. Also, the figures for the pIC50 at CyclinB1/CDK1, at CyclinA2/CDK2 and at CyclinE1/CDK2 were 7.70, 7.70 and 6.72, respectively.
With `CC(C)C[C@@H]1NC(=O)[C@@H](N(C)C(=O)[C@H](CCCO)NC(=O)[C@@H]2C[C@@H](F)CN2C(=O)C2(C(F)(F)F)CC(F)(F)C2)CCCCCCCN(C)C(=O)[C@H](Cc2cc(Cl)ccc2-c2ccc(N3CCOCC3)cc2)N(C)C1=O` [Example 421] ({cBuCO(3,3-F2-1-CF3)}-[Pro(trans-4-F)][Nva(5-OH)][NMehhhLys(Me)]L[NMePhe(2-(4-MorPh),5-Cl)]; lactam 3-C), the 50% growth inhibitory concentration (GI50) in the series on WI-38 cells was determined as 19100 nM; in the series with OVCAR3 cells, 10 nM; in the series with NCI-H1048 cells, 10 nM. In addition, the pIC50 was 7.70 at CyclinB1/CDK1, 7.70 on CyclinA2/CDK2 and 6.29 at CyclinE1/CDK2.
In the case of `[2H]C([2H])([2H])N(C(=O)[C@@H](NC(=O)[C@@H]1C[C@@H](F)CN1C(=O)C1(C(F)(F)F)CC(F)(F)C1)C1CC1)[C@H]1CCCCCCCN(C)C(=O)[C@H](Cc2cc(Cl)ccc2-c2ccc(N3CCN(C)CC3)cc2)N(C)C(=O)[C@H](CC(C)C)NC1=O` [Example 422], the GI50 is 2360 nM in the series on WI-38 cells, 10 nM in the series with OVCAR3 cells and 10 nM with NCI-H1048 cells. Besides, the pIC50 on CyclinB1/CDK1 is 7.70; on CyclinA2/CDK2, 7.70; at CyclinE1/CDK2, 6.38.
